Results on 5 compounds are retold here after patent publication US11697669B2, “Hemi-citrate salts of GABA-A positive allosteric modulator and crystalline form thereof” (priority 2021, dated 2023).

Where a name gives a salt, the structure may show the parent alone. Read-outs that look alike come from different tables or passages of the source.

Common to all, as to assay type: physicochemical
Series [1] is described as follows: Gelation experiments in aqueous media. To be noted: for gelation during tablet dissolution experiments: certain conditions. The procedure: To confirm these findings, controlled experiments were conducted where the free base, mono-citrate, and hemi-citrate salts of Compound 1 were dissolved in aqueous media at concentrations between 0.5 mg/mL and 10 mg/mL. The dissolution experiments were performed in either 0.1 N HCl, water, or pH 7.4 buffer as aqueous media.

The nature of series [2]: Heckel analysis on compaction simulator (yield pressure, strain rate sensitivity, crushing strength). To be noted: for yield pressure, fast press speed: punch speed 300 mm/s; for yield pressure, slow speed: punch speed 0.1 mm/s. The procedure: The aim of the Heckel test is to compress the material under controlled conditions to derive the yield pressure of the bulk material. A known weight of material is compressed within a 10 mm diameter die with flat faced punches moving at a set speed. The force on the punch is accurately measured at frequent intervals whilst the displacement of the punches is used to calculate the volume of the powder. The yield pressure is calculated at slow and fast punch speeds to assess the time-dependent component to deformation of the material.
A known weight of pure drug is compacted to theoretical zero porosity using 10 mm diameter flat faced punches. The Compaction Simulator was used under the following conditions:
During compression the location of the punch tips are accurately determined, and the force measured by load cells producing a record of the primary compression parameters. Temperature and humidity were monitored at intervals during the test.
The data were analyzed by the Compaction Analysis software program to generate values for yield pressure (Py) using the Heckel equation:
[formula] where D=the relative density of the compact; • P=Pressure applied; and • K=Gradient of the line in the linear region; [Reference: R. W. Heckel. Trans. Metall. Soc. AIME 221 (1961)1001-1008].
For some materials, the deformation characteristics change with rate of applied force. This can be estimated by calculating the Strain Rate Sensitivity. The yield pressure at high speed compression is compared to that at slow speed using the following equation:
[formula] [Reference: R. J. Roberts and R. C. Roe, Chem. Eng. Sci. 42(1987) p 903]. Results

Series [3] is described as follows: Dynamic vapor sorption (DVS) at room temperature and 40° C. Here is the method: DVS was measured via a SMS (Surface Measurement System) DVS Intrinsic. Parameters for DVS data collection were as follows:
A second endotherm (having an onset at 121.5° C.) associated with melting of the dehydrated phase (ΔH: 15.20 J/g) was followed by a rapid decomposition as temperature continued to increase (FIG. 3). Because of the low onset of dehydration, the DVS was measured at both room temperature and at 40° C. to predict the stability of the crystalline phase at 40° C. […] A 1.5% weight loss was observed between 95% and 20% RH, and a 2.9% weight loss was observed between 20% and 0% RH, for a total loss of […] across the entire cycle. […] After measuring the hygroscopicity by DVS, an XRPD pattern was collected for comparison to the original material and found to correspond well to the pattern of the room temperature sample post-DVS temperature cycle (FIG. 6).

Series [4] is described as follows: Tablet dissolution: percent release of Compound 1 from acidified tablet formulation. The procedure: FIG. 13 is a graph showing percent release of Compound 1 over time for an acidified tablet formulation containing Compound 1 hemi-citrate salt Form I. Tablets were used initially or maintained at 40° C./75% RH for 2 weeks, 1 month, or 2 months.
FIG. 14 is a graph showing percent release of Compound 1 over time for an acidified tablet formulation containing Compound 1 mono-citrate salt (Form A). Tablets were used initially or stored at 40° C./75% RH for 2 weeks, 1 month, or 2 months.

Series [5] is described as follows: Tablet stability: C17 epimer in sealed bottles stored at 40° C./75% RH. To be noted: tablet dosage form, sealed bottle, 1 or 2 months, versus mono-citrate salt. The procedure:
FIG. 12 is a graph comparing the amount of the C17 epimer, a degradation product of Compound 1, over time for a tablet formulation containing Compound 1 hemi-citrate salt (Form I; left column in both “1 month” and “2 months”) or Compound 1 mono-citrate salt (Form A; right column in both “1 month” and “2 months”) in sealed bottles stored at 40° C./75% RH).

[6] abbreviates: fast speed 300 mm/s, single runs, 21.7° C./38.9% RH.

`COC[C@@]1(O)CC[C@@]2(C)[C@@H](CC[C@@H]3[C@@H]2CC[C@]2(C)[C@@H](C(=O)Cn4ccnc4)CC[C@@H]32)C1` [Compound 1, 3α-Hydroxy-3β-methoxymethyl-21-(1′-imidazolyl)-5α-pregnan-20-one]: the gelation result is “rapidly gelled” in series [1] (0.1 N HCl, concentrations as low as 1 mg/mL) and “did not gel” in series [1] (water or pH 7.4 buffer).

For the compound `COC[C@@]1(O)CC[C@@]2(C)[C@@H](CC[C@@H]3[C@@H]2CC[C@]2(C)[C@@H](C(=O)Cn4ccnc4)CC[C@@H]32)C1.O=C(O)CC(O)(CC(=O)O)C(=O)O` [Compound 1 mono-citrate salt, 3α-Hydroxy-3β-methoxymethyl-21-(1′-imidazolyl)-5α-pregnan-20-one, reference compound], the gelation result in series [1] (0.1 N HCl, 5 mg/mL) is “rapidly gelled”; in series [1] (water or pH 7.4 buffer) it was “did not gel”. In series [1], the “gelation during tablet dissolution experiments” value was “significant gelation”. In addition, in series [2] (from slow speed yield pressure), the “classification of compaction properties” value is given as “moderately brittle/ductile compaction properties”. Also, the “yield pressure, fast press speed” value in series [2] is listed as 109 MPa.

Turning to `COC[C@@]1(O)CC[C@@]2(C)[C@@H](CC[C@@H]3[C@@H]2CC[C@]2(C)[C@@H](C(=O)Cn4ccnc4)CC[C@@H]32)C1` [Compound 1 hemi-citrate salt Form I, 3α-Hydroxy-3β-methoxymethyl-21-(1′-imidazolyl)-5α-pregnan-20-one], the “Strain rate sensitivity (SRS)” value in series [2] (fast versus slow speed yield pressure) is on record as 21.4%. Further, the “yield pressure, slow speed” value in series [2] was 69 MPa. In addition, the hygroscopicity result in series [3] was “slightly hygroscopic”. In addition, in series [3] (40° C.), the “reversibility of water loss” value is given as “fully reversible”; the total loss was 5.4%; the “water absorption from 20% to 80% RH” value is on record as 1.8%; the “water lost between 95% and 20% RH” value was determined as 2.2%. Also, the “water lost from 20% to 0% RH” value in series [3] (40° C.) is listed as 3.2%. Besides, in series [3] (room temperature), the “reversibility of water loss” value was “fully reversible”; the “total loss across the entire cycle” value was 4.3%; the “water uptake between 20% and 80% RH” value was found to be 1.2%; the “weight loss between 20% and 0% RH” value is recorded as 2.9%. In addition, the “weight loss between 95% and 20% RH” value in series [3] (room temperature) was determined as 1.5%.

As for `COC[C@@]1(O)CC[C@@]2(C)[C@@H](CC[C@@H]3[C@@H]2CC[C@]2(C)[C@@H](C(=O)Cn4ccnc4)CC[C@@H]32)C1` [Compound 1 hemi-citrate salt, 3α-Hydroxy-3β-methoxymethyl-21-(1′-imidazolyl)-5α-pregnan-20-one], the “release of Compound 1 over time” value in series [4] (acidified formulation, initial and open dish at 40° C./75% RH for 2 weeks, 1 month or 2 months) is “greater than the release of Compound 1 from the same acidified formulation of the Compound 1 mono-citrate salt”. Besides, in series [4] (tablet, versus mono-citrate salt), the “susceptibility to dissolution slow-down of the tablet” value is recorded as “less susceptible than the Compound 1 mono-citrate salt to dissolution slow-down”. Moreover, the gelation result in series [1] (any of the aqueous media (0.1 N HCl, water, pH 7.4 buffer), concentrations up to 10 mg/mL) is reported as “did not gel”. Also, the “gelation during tablet dissolution experiments” value in series [1] is “not prone to gelation”. In series [2], the “classification of compaction properties” value is on record as “soft ductile compaction properties” and the “yield pressure, fast press speed” value is 84 MPa. Moreover, the “degradation product (C17-epimer) generated” value in series [5] is recorded as “less degradation product”.

Regarding `COC[C@@]1(O)CC[C@@]2(C)[C@@H](CC[C@@H]3[C@@H]2CC[C@]2(C)[C@@H](C(=O)Cn4ccnc4)CC[C@@H]32)C1.O=C(O)CC(O)(CC(=O)O)C(=O)O` [Compound 1 mono-citrate salt Form A], in series [2] (setting [6]), the Compact observations result is “Laminated” and the “Ejection Force” value is 0.740 kN. Moreover, in series [2], the “yield pressure, slow speed” value is recorded as 84 MPa. Besides, the Compact observations entry in series [2] (slow speed 0.1 mm/s, single runs, 21.6° C./37.1% RH) is recorded as “Ok”.
